Reference: patent US20200061092A1, “METHODS AND COMPOSITIONS FOR TREATING DISORDERS ASSOCIATED WITH MUSCLE WEAKNESS” (priority 2018, published 2020)

Tests used:
[1] = system: C2C12 myotubes; assay: LC/MS-MS of isotopically labeled metabolites in differentiated C2C12 myotubes; format: cell-based, mouse; conditions: 5 mM, 5 days
[2] = system: muscular dystrophy caused by FKRP mutations; assay: Ribitol/ribose supplementation in animal model of FKRP mutation muscular dystrophy; format: in vivo; conditions: supplement via drinking water

| Molecule | Levels of 13C-ribitol-5P and CDP-13C-ribitol in cells [1] | Disease pathology of muscular dystrophy caused by FKRP mutations [2] |
| --- | --- | --- |
| ^13C5-ribitol [^13C-ribitol] | clearly elevated levels |  |
| O=C[C@H](O)[C@H](O)[C@H](O)CO [ribose] |  | diminish disease pathology |
